Each structure is given as a SMILES string.

In general, GI50 refers to the concentration that inhibits growth by half. A high value points to lower sensitivity of the cells. In general, IC50 refers to the concentration that gives 50% inhibition. Low values mean greater potency in that assay, high ones weaker potency in that assay.

One experiment relates to K562. As to the kind of experiment: Cell culture and GI50 determination (resazurin). The note with it: Homo sapiens, K562, 48 hour incubation. Format: cell-based. As to the method:
(§1) MDA-MB-231 (breast cancer) and KM12 (colon cancer) cells obtained from the UZH Cancer Institute, HOP-92 (lung cancer) cells purchased from the National Cancer Institute (NCl) and A498 (kidney cancer) cells obtained from Prof. Krek (Institute of Cell Biology, ETH Zurich) were cultured in Dulbecco's modified Eagle's medium (DMEM) supplemented with 10% (v/v) fetal bovine serum. K562 leukemia cells obtained from Dr. Silvio Hemmi (Institute of Molecular Life Sciences, UZH) were cultured using RPMI medium supplemented with 5% (v/v) fetal bovine serum. All the media was additionally supplemented with 100 units/mL of penicillin, 100µg/mL of streptomycin, 4.5 g/L glucose, 0.11g/L sodium pyrubate and 2mM glutamine and the cells were grown at 37 °C in 5% CO2 atmosphere with 80% relative humidity.
In the case of K-562 leukemia cells, these were seeded at a density of 20,000 cells per well in 100µL of RMPI media in a 96 well microtiter plates. […] After 48 hour incubation, cell viability was assessed by measuring the ability of the cells to process resazurin. Resazurin was added to every well to obtain a final concentration of 86nmol/L, and after 3 hours, the fluorescence was quantified using a fluorescence microplate reader (Biotek, FLx800™) at the respective excitation and emission wavelength of 560 and 590 nm as described above. […]

For a further experiment, the system named is KM12. Put plainly: Cell culture and GI50 determination (resazurin). Format: cell-based. The note with it: Homo sapiens. On the procedure: as §1
(§2) MDA-MB-231, HT-29, KM12, HOP-92 and A498 cells were plated at 10,000 cells per well (100 µL per well) in 96-well culture dishes and allowed to incubate for 24 h. The old media was removed, the cells were washed with PBS (phosphate-buffered saline) and fresh media was added. A 5 mmol/L solution of inhibitor (in 100% DMSO) was serially diluted in the culture media (12 different concentrations were used) and allowed to incubate for 72 h (MDA-MB-231) or 48h (A498). Control cells were treated with the same DMSO concentrations. After the incubation period the media was once more removed and the cells were washed with PBS to then be incubated with fresh media containing 86 nmol/L resazurin. After 3 hours, the fluorescence was quantified using a fluorescence microplate reader (Biotek, FLx800™) at the respective excitation and emission wavelength of 560 and 590 nm. Resazurin becomes fluorescent under mitochondrial reduction and its emission directly correlates with the metabolic stability of the cells. The measured fluorescence values were corrected from the control samples containing DMSO and GI50 values were determined by plotting the fraction of metabolically active cells against the log of the drug concentration. All measurements were performed at least in triplicate.
In general terms: The colour change of resazurin is a common sign of viable cells or microbes.

The next experiment has as its system A498. As to the kind of experiment: Cell culture and GI50 determination (resazurin). Format: cell-based. The note with it: Homo sapiens, A498, 48h incubation. As to the method: as §1, §2
The subject of another experiment is MDA-MB-231. Put plainly: Cell culture and GI50 determination (resazurin). The experiment is classed as cell-based. The note with it: Homo sapiens, MDA-MB-231, 72 h incubation. On the procedure:
as §1, §2

Another experiment deals with HOP-92. As to the kind of experiment: Cell culture and GI50 determination (resazurin). The experiment is classed as cell-based. The note with it: Homo sapiens; HOP-92, resazurin. On the procedure: as §1, §2
A further experiment concerns the target T1, EphB4 (Homo sapiens, UniProt P54760).
T1 sequence (P54760 16-987): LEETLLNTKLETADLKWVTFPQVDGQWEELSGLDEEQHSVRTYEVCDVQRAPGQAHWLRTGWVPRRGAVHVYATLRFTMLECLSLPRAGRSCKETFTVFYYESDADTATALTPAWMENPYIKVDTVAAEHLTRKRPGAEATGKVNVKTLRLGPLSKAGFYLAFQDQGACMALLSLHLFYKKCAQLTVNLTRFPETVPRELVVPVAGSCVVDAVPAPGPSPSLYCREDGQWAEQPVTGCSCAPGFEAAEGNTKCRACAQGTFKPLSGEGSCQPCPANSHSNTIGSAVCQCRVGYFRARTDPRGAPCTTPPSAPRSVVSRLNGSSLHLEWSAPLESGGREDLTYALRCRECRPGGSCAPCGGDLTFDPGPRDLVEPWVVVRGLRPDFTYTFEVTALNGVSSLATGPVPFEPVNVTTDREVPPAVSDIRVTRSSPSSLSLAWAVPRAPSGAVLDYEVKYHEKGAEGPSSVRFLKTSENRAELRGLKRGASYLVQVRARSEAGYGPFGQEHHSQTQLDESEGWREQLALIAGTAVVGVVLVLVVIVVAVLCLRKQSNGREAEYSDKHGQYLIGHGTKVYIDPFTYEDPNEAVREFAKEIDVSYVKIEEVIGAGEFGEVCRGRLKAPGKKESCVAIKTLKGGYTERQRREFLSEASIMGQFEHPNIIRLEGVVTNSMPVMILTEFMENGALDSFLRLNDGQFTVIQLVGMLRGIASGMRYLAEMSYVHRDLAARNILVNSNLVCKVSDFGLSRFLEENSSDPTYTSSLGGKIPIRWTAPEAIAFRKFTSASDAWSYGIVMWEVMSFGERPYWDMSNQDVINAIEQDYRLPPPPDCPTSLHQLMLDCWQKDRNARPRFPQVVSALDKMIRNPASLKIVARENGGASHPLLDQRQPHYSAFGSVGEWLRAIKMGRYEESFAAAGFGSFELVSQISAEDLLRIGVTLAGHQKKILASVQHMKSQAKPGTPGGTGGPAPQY
As to the kind of experiment: FRET based enzymatic assay (Z'-LYTE Kinase Assay Kit-Tyr 1 Peptide). Format: biochemical. The note with it: EphB4 25 ng/µL, ATP 125 µM, room temperature, 2 h. As to the method:
Selected compounds were tested in the Z'-LYTE™ Kinase Assay Kit-Tyr 1 Peptide (Invitrogen, USA) in a Corning 384 well microtiter plate. Fluorescence progress curves were measured upon excitation at 400 nm and emission at 445 and 520 nm.

Take `Cc1ccc(O)cc1-n1c(N)c(C(N)=O)c2nc3ccccc3nc21` [Compound 2, 2-Amino-1-(5-hydroxy-2-methylphenyl)-1H-pyrrolo[2,3-b]quinoxaline-3-carboxamide]: the concentration for 50% growth inhibition (GI50) is 1050 nM in the experiment with K562; 1550 nM in the experiment on KM12; 5880 nM with A498; 2640 nM in the experiment with MDA-MB-231; 490 nM in the experiment with HOP-92. This molecule gave an IC50 against EphB4 of 11 nM.

Source of the values: patent EP2924040A1, “2-Amino-1-(o-tolyl)pyrrolo[3,2-b]quinoxaline-3-carboxamide derivates” (Universität Zürich, priority 2014, dated 2015).
